# Patent publication US20050197350A1, “Novel quinoline, tetrahydroquinazoline, and pyrimidine derivatives and methods of treatment related to the use thereof” (TAISHO PHARMACEUTICAL CO., LTD., priority 2003, published 2005)
# Like-named read-outs stand apart in the source and are kept apart here.
# Test system: MCH receptors
# Test: MCH receptor activity class (method not given)
# [1] = class by percent of control at 10^-7 M or IC50
# [2] = activity class 1-3: percent of control at 10^-7 M or IC50
# [3] = MCH receptor, class by percent of control at 10^-7 M or IC50
# [4] = class 1-3 by percent of control at 10^-7 M or IC50
Compound,class [1],other results
CN(C)c1ccnc(NC2CCC(NC(=O)OCc3ccc([N+](=O)[O-])cc3)CC2)n1 (stereo not drawn) [compound 274],3 (Class 3 The value of percent of control at 10^−7 M was more than 60% or the value of IC50 was more than 200 nM.),–
CN(C)c1nc(N[C@H]2CC[C@@H](NC(=O)c3ccc(Cl)s3)CC2)nc2c1CCCC2 [compound 953],1 (Class 1: The value of percent of control at 10^−7 M was less than 40% or the value of IC50 was less than 50 nM.),–
C[C@@H](NC(=O)c1ccccc1C(=O)N[C@H]1CC[C@@H](Nc2nc3c(c(N(C)C)n2)CCCC3)CC1)c1cccc2ccccc12 [compound 1013],–,class (activity class per percent of control at 10^-7 M or IC50): 3 (Class 3 The value of percent of control at 10^−7 M was more than 60% or the value of IC50 was more than 200 nM.)
COc1cc(C(=O)N[C@H]2CC[C@@H](Nc3nc4c(c(N(C)C)n3)CCCC4)CC2)ccc1[N+](=O)[O-] [compound 966],1 (Class 1: The value of percent of control at 10^−7 M was less than 40% or the value of IC50 was less than 50 nM.),–
"Cc1cc(Cl)ccc1NC(=S)N[C@H]1CC[C@@H](Nc2nc3c(c(N(C)C)n2)CCCC3)CC1 [compound 1766, N-(4-chloro-2-methylphenyl)-N′-(cis-4-{[4-(dimethylamino)-5,6,7,8-tetrahydroquinazolin-2-yl]amino}cyclohexyl)thiourea]",1 (Class 1: The value of percent of control at 10^−7 M was less than 40% or the value of IC50 was less than 50 nM.),–
CN(C)c1cc(N[C@H]2CC[C@@H](NC(=O)Oc3ccc4ccccc4c3)CC2)nc2ccccc12 [compound 1549],–,class [2]: 3 (Class 3 The value of percent of control at 10^−7 M was more than 60% or the value of IC50 was more than 200 nM.)
CN(C)c1nc(N[C@H]2CC[C@@H](NC(=O)Nc3ccc(F)c([N+](=O)[O-])c3)CC2)nc2c1CCCC2 [compound 1826],3 (Class 3 The value of percent of control at 10^−7 M was more than 60% or the value of IC50 was more than 200 nM.),–
"Cc1cc(N[C@H]2CC[C@@H](NC(=O)COc3ccc(Cl)cc3)CC2)nc2ccccc12 [Example 2551, 2-(4-chlorophenoxy)-N-{cis-4-[(4-methylquinolin-2-yl)amino]cyclohexyl}acetamide]",–,class: 1
CN(C)c1ccnc(N[C@H]2CC[C@@H](CNC(=O)c3cccc(Br)c3)CC2)n1 [compound 366],3 (Class 3 The value of percent of control at 10^−7 M was more than 60% or the value of IC50 was more than 200 nM.),–
CN(C)c1ccnc(N[C@H]2CC[C@@H](NC(=O)[C@H](Cc3cn(Cc4ccccc4)cn3)NC(=O)OC(C)(C)C)CC2)n1 [compound 848],3 (Class 3 The value of percent of control at 10^−7 M was more than 60% or the value of IC50 was more than 200 nM.),–
CCCCCCCCCCc1ccc(NC(=S)N[C@H]2CC[C@@H](Nc3nc4c(c(N(C)C)n3)CCCC4)CC2)cc1 [compound 2048],–,class [3]: 3 (Class 3 The value of percent of control at 10^−7 M was more than 60% or the value of IC50 was more than 200 nM.)
COc1cc(COC(=O)N[C@H]2CC[C@@H](Nc3nccc(N(C)C)n3)CC2)c([N+](=O)[O-])cc1OC [compound 337],3 (Class 3 The value of percent of control at 10^−7 M was more than 60% or the value of IC50 was more than 200 nM.),–
CN(C)c1nc(N[C@H]2CC[C@@H](NC(=O)Nc3ccc(Oc4ccccc4)cc3)CC2)nc2c1CCCC2 [compound 1702],–,class [2]: 3 (Class 3 The value of percent of control at 10^−7 M was more than 60% or the value of IC50 was more than 200 nM.)
CN(C)c1nc(N[C@H]2CC[C@@H](NC(=O)c3sc(Cl)c(Cl)c3Cl)CC2)nc2c1CCCC2 [compound 568],–,class [4]: 3 (Class 3 The value of percent of control at 10^−7 M was more than 60% or the value of IC50 was more than 200 nM.)
CC(C)c1ccc(NC(=S)N[C@H]2CC[C@@H](Nc3nc4c(c(N(C)C)n3)CCCC4)CC2)cc1 [compound 2016],–,class [3]: 3 (Class 3 The value of percent of control at 10^−7 M was more than 60% or the value of IC50 was more than 200 nM.)
CCc1cccc(CC)c1NC(=S)N[C@H]1CC[C@@H](Nc2cc(N(C)C)c3ccccc3n2)CC1 [compound 2277],1 (Class 1: The value of percent of control at 10^−7 M was less than 40% or the value of IC50 was less than 50 nM.),–
COc1ccc(Br)c(C(=O)N[C@H]2CC[C@@H](Nc3cc(N(C)C)c4ccccc4n3)CC2)c1 [compound 121],–,class [3]: 3 (Class 3 The value of percent of control at 10^−7 M was more than 60% or the value of IC50 was more than 200 nM.)
CC(C(=O)N[C@H]1CC[C@@H](Nc2nccc(N(C)C)n2)CC1)c1ccc(-c2ccccc2)c(F)c1 (relative stereo) [compound 847],3 (Class 3 The value of percent of control at 10^−7 M was more than 60% or the value of IC50 was more than 200 nM.),–
CN(C)c1ccnc(N[C@H]2CC[C@@H](NCCc3ccc(Br)cc3)CC2)n1 [compound 1513],3 (Class 3 The value of percent of control at 10^−7 M was more than 60% or the value of IC50 was more than 200 nM.),–
C=CCSc1ncccc1C(=O)N[C@H]1CC[C@@H](Nc2cc(N(C)C)c3ccccc3n2)CC1 [compound 786],3 (Class 3 The value of percent of control at 10^−7 M was more than 60% or the value of IC50 was more than 200 nM.),–

Compound,class [1],other results
CN(C)c1cc(N[C@H]2CC[C@@H](NC(=S)Nc3ccc(I)cc3)CC2)nc2ccccc12 [compound 2272],3 (Class 3 The value of percent of control at 10^−7 M was more than 60% or the value of IC50 was more than 200 nM.),–
Cc1cc(N(C)C)nc(N[C@H]2CC[C@@H](CNC(=O)c3ccc(F)c(Cl)c3)CC2)n1 [compound 2764],–,class (class by percent of control at 10^−7 M or IC50): 1 (Class 1: The value of percent of control at 10^−7 M was less than 40% or the value of IC50 was less than 50 nM.)
CN(C)c1nc(N[C@H]2CC[C@@H](NC(=O)Nc3cc(F)ccc3F)CC2)nc2c1CCCC2 [compound 1848],3 (Class 3 The value of percent of control at 10^−7 M was more than 60% or the value of IC50 was more than 200 nM.),–
"Cc1cc(Cl)ccc1NC(=O)N[C@H]1CC[C@@H](Nc2nccc(N(C)C)n2)CC1 [compound 2244, N-(4-chloro-2-methylphenyl)-N′-(cis-4-{[4-(dimethylamino)pyrimidin-2-yl]amino}cyclohexyl)urea]",2 (Class 2: The value of percent of control at 10^−7 M was from 40% to 60% or the value of IC′50 was from 50 nM to 200 nM.),–
CN(C)c1ccnc(N[C@H]2CC[C@@H](NC(=O)c3ccc(Cl)cc3)CC2)n1 [compound 243],2 (Class 2: The value of percent of control at 10^−7 M was from 40% to 60% or the value of IC′50 was from 50 nM to 200 nM.),–
CN(C)c1ccnc(N[C@H]2CC[C@@H](CNC(=O)c3cc(F)c(Cl)cc3Cl)CC2)n1 [compound 384],2 (Class 2: The value of percent of control at 10^−7 M was from 40% to 60% or the value of IC′50 was from 50 nM to 200 nM.),–
CN(C)c1nc(N[C@H]2CC[C@@H](NC(=O)c3ccc4c(c3)OCO4)CC2)nc2c1CCCC2 [compound 483],–,class [4]: 3 (Class 3 The value of percent of control at 10^−7 M was more than 60% or the value of IC50 was more than 200 nM.)
CN(C)c1cc(N[C@H]2CC[C@@H](NC(=O)c3cn(Cc4ccccc4)c4ccccc34)CC2)nc2ccccc12 [compound 691],3 (Class 3 The value of percent of control at 10^−7 M was more than 60% or the value of IC50 was more than 200 nM.),–
CN(C)c1ccnc(N[C@H]2CC[C@@H](NCCOc3ccccc3Cl)CC2)n1 [compound 1515],–,class [2]: 3 (Class 3 The value of percent of control at 10^−7 M was more than 60% or the value of IC50 was more than 200 nM.)
CN(C)c1ccnc(N[C@H]2CC[C@@H](CNC(=O)Nc3c(F)cc(Br)cc3F)CC2)n1 [compound 2432],–,class (MCH receptor activity class 1-3 (percent of control at 10^-7 M or IC50)): 1 (Class 1: The value of percent of control at 10^−7 M was less than 40% or the value of IC50 was less than 50 nM.)
"CN(C)c1nc(N[C@H]2CC[C@@H](NC(=O)NCc3ccccc3Cl)CC2)nc2c1CCCC2 [compound 1675, N-(2-chlorobenzyl)-N′-(cis-4-{[4-(dimethylamino)-5,6,7,8-tetrahydroquinazolin-2-yl]amino}cyclohexyl)urea]",–,class [2]: 2 (Class 2: The value of percent of control at 10^−7 M was from 40% to 60% or the value of IC′50 was from 50 nM to 200 nM.)
CN(C)c1ccnc(N[C@H]2CC[C@@H](CNCc3ccccc3SC(F)(F)F)CC2)n1 [compound 1286],3 (Class 3 The value of percent of control at 10^−7 M was more than 60% or the value of IC50 was more than 200 nM.),–
CN(C)c1ccnc(N[C@H]2CC[C@@H](NC(=O)Nc3ccccc3C(C)(C)C)CC2)n1 [compound 2204],3 (Class 3 The value of percent of control at 10^−7 M was more than 60% or the value of IC50 was more than 200 nM.),–
C=CCOC(=O)NC[C@H]1CC[C@@H](Nc2nccc(N(C)C)n2)CC1 [compound 1650],–,class [2]: 3 (Class 3 The value of percent of control at 10^−7 M was more than 60% or the value of IC50 was more than 200 nM.)
C[C@H](C(=O)N[C@H]1CC[C@@H](Nc2cc(N(C)C)c3ccccc3n2)CC1)c1cccc(C(=O)c2ccccc2)c1 [compound 738],3 (Class 3 The value of percent of control at 10^−7 M was more than 60% or the value of IC50 was more than 200 nM.),–
CN(C)c1nc(N[C@H]2CC[C@@H](NC(=S)NC3CC4C=CC3C4)CC2)nc2c1CCCC2 (relative stereo) [compound 2067],–,class [3]: 3 (Class 3 The value of percent of control at 10^−7 M was more than 60% or the value of IC50 was more than 200 nM.)
CN(C)c1cc(N[C@H]2CC[C@@H](NC(=O)Nc3c(F)cc(Br)cc3Br)CC2)nc2ccccc12 [compound 2101],2 (Class 2: The value of percent of control at 10^−7 M was from 40% to 60% or the value of IC′50 was from 50 nM to 200 nM.),–
CN(C)c1ccnc(N[C@H]2CC[C@@H](CNCc3cccc(Cl)c3)CC2)n1 [compound 1269],3 (Class 3 The value of percent of control at 10^−7 M was more than 60% or the value of IC50 was more than 200 nM.),–
CN(C)c1cc(N[C@H]2CC[C@@H](CNC(=O)OCc3ccccc3Cl)CC2)nc2ccccc12 [compound 1576],–,class [2]: 3 (Class 3 The value of percent of control at 10^−7 M was more than 60% or the value of IC50 was more than 200 nM.)
